Among the data in patent US12054510B2, “2′ and/or 5′ amino-acid ester phosphoramidate 3′-deoxy adenosine derivatives as anti-cancer compounds” (Nucana plc, priority 2014, dated 2024) are IC50, Emax and MI % values, retold here.

The structures appear in SMILES notation.

Assay in all cases: Solid tumour and haematological malignancy assay (CellTiterGlo)
Common to all, as to assay type: cell-based

The subject of assay [1] is MV4-11. The settings on record: for IC50: Homo sapiens, MV4-11, 72 h, read-out: IC50 (absolute IC50).
Assay [2] relates to RL. Particulars: Homo sapiens, 72 h, read-out: MI %.
The subject of assay [3] is THP-1. The settings on record: 72 hr.
Assay [4] relates to CCRFCEM. Particulars: Homo sapiens, CCRF-CEM, 72 h. As for the experimental part: In vitro viability assay were performed to assess the effects of compounds on cell viability in selected cell lines over 72 hr using the CellTiterGlo (CTG, Promega-G7573) assay. […] Cell viability assay using CellTiterGlo in 96-well plate were performed. Compound treatment 72 hrs, standard growth conditions, duplicates. Compounds were dissolved to 40 mM with thawed 100%. […] After compounds were dissolved in media, media containing compounds were warmed to 37° C. in incubator and then compounds in media were added to cell plates (50 μl+50 μl) in duplicates. […] All compound solubilities were checked and recorded again, then the plates were transferred to CO2 tissue culture incubator immediately and incubated for 3 days. DMSO final concentration is 0.5%.

In assay [5] the test system is NCI-H929. The settings on record: Homo sapiens, NCI-H929, 72 h, read-out: MI %.
Assay [6] concerns Z138. Particulars: 72 hr.

`C[C@H](NP(=O)(OC[C@@H]1C[C@@H](O)[C@H](n2cnc3c(N)ncnc32)O1)Oc1cccc2ccccc12)C(=O)OCc1ccccc1` (stereo partly drawn) [B, (2S)-benzyl 2-(((((2S,4R,5R)-5-(6-amino-9H-purin-9-yl)-4-hydroxytetrahydrofuran-2-yl)methoxy)(naphthalen-1-yloxy)phosphoryl)amino)propanoate]: the IC50 in assay [1] and in assay [4] (read-out: IC50 (absolute IC50)) was 0.1 to 5 µM throughout. In assay [2], the Emax was determined as 96%. This molecule had an MI % in assay [3] of 99%.
On to `COC(=O)C(C)(C)NP(=O)(OC[C@@H]1C[C@@H](O)[C@H](n2cnc3c(N)ncnc32)O1)Oc1cccc2ccccc12` (stereo partly drawn) [E, Methyl 2-(((((2S,4R,5R)-5-(6-amino-9H-purin-9-yl)-4-hydroxytetrahydrofuran-2-yl)-methoxy)(naphthalen-1-yloxy)phosphoryl)amino)-2-methylpropanoate], for which the IC50 in assay [1] is 5 to 15 µM. In addition, the MI % amounted to 101% in assay [1] (MV4-11, 72 hr); 43% in assay [3]; 93% in assay [6]. Besides, the Emax in assay [5] came to 98%; in assay [2], 88%.
As for `CCOC(=O)CCc1ccccc1OP(=O)(N[C@@H](C)C(=O)OCc1ccccc1)OC[C@@H]1C[C@@H](O)[C@H](n2cnc3c(N)ncnc32)O1` (stereo partly drawn) [F, (2S)-benzyl 2-(((((2S,4R,5R)-5-(6-amino-9H-purin-9-yl)-4-hydroxytetrahydrofuran-2-yl)methoxy)(2-(3-ethoxy-3-oxopropyl)phenoxy)phosphoryl)amino)propanoate], in assay [6], the MI % was 76%. Also, the Emax in assay [4] (read-out: MI %) was determined as 101%.
